Source: US11987563B1, “3-cyano 4,5-diphenyl furan-2-carboxamides as antitubercular agents” (KING FAISAL UNIVERSITY, priority 2023, dated 2024)

Tests used:
M. tuberculosis H37Rv = experiment: Microplate Alamar Blue Assay (MABA) against M. tuberculosis H37Rv; format: cell-based; conditions: Mycobacterium tuberculosis, read-out: M. tuberculosis H37Rv (% of inhibition) 50 μg/mL
M. smegmatis = experiment: Microplate Alamar Blue Assay (MABA) against M. smegmatis; format: cell-based, Mycobacterium smegmatis; conditions: Mycolicibacterium smegmatis; read-out: M. smegmatis (% of inhibition) 50 μg/mL

| SMILES | inhibition at 50 µg/mL (M. tuberculosis H37Rv) [%] | inhibition at 50 µg/mL (M. smegmatis) [%] |
| --- | --- | --- |
| CC(=O)Nc1oc(-c2ccccc2)c(-c2ccccc2)c1C#N [Compound 2a, N-(3-Cyano-4,5-diphenylfuran-2-yl)acetamide] | 27 | 38 |
| N#Cc1c(NC(=O)c2ccccc2)oc(-c2ccccc2)c1-c1ccccc1 [Compound 2b, N-(3-Cyano-4,5-diphenylfuran-2-yl)benzamide] | 6 | 13 |
| N#Cc1c(NC(=O)c2ccc(Cl)cc2)oc(-c2ccccc2)c1-c1ccccc1 [Compound 2c, 4-Chloro-N-(3-cyano-4,5-diphenylfuran-2-yl)benzamide] | 19 | 25 |
| Cc1ccc(S(=O)(=O)Nc2oc(-c3ccccc3)c(-c3ccccc3)c2C#N)cc1 [Compound 2d, N-(3-Cyano-4,5-diphenylfuran-2-yl)-4-methylbenzenesulfonamide] | 9 | 37 |
| N#Cc1c(N)oc(-c2ccccc2)c1-c1ccccc1 [Compound 1, 2-Amino-4,5-diphenylfuran-3-carbonitrile] | 6 | 32 |
